The values below come from US8853224B2 (priority 2006, dated 2014).

As usually defined, the Kd is the constant that tells how readily two partners part at equilibrium. Low values mean higher affinity, high ones lower affinity.

This assay concerns the target Plasmodium falciparum purine nucleoside phosphorylase (PfPNP) (Plasmodium falciparum (isolate 3D7), UniProt Q8I3X4). In words: biochemical.
Source text: For inhibitors without slow-onset properties, fits to the same equation were made, but using initial reaction rates.
Compound `O=c1[nH]cnc2c(CNC[C@@H](O)[C@H](O)CO)c[nH]c12` (racemic) [Example 20.5, 7-(((2RS,3RS)-2,3,4-trihydroxybutylamino)methyl)-3H-pyrrolo[3,2-d]pyrimidin-4(5H)-one] came in with a Kd of 32 ± 2 µM.

In turn, `O=c1[nH]cnc2c(CNC[C@H](O)[C@H](O)CO)c[nH]c12` [Example 19.3, 7-(((2S,3R)-2,3,4-trihydroxybutylamino)methyl)-3H-pyrrolo[3,2-d]pyrimidin-4(5H)-one] showed a Kd of 12 ± 2 µM. Against the preceding compound, the Kd is about 2.7-fold lower.

In turn, `O=c1[nH]cnc2c(CNCC(CO)CO)c[nH]c12` [Example 8, 7-((3-hydroxy-2-(hydroxymethyl)propylamino)methyl)-3H-pyrrolo[3,2-d]pyrimidin-4(5H)-one] registered a Kd of 0.21 ± 0.05 µM.
